Tests used:
[1] = biological target: IL-17A(FLAG-Tagged): IL-17RA(His-Tagged) (Homo sapiens, UniProt Q16552, K93Q); experiment: IL-17A(FLAG-Tagged): IL-17RA(His-Tagged) Binding Disruption Eu-HTRF Assay; conditions: disruption of IL-17A/IL-17RA binding; simple average if tested more than once
Excerpt: IL-17A(FLAG-Tagged): IL-17RA(His-Tagged) Binding Disruption Eu-HTRF Assay
An antibody directed against the FLAG tag of IL-17A (SEQ ID NO: 1) is labeled with the HTRF donor chromophore (Europium-cryptate). IL-17A is present as a dimer that is “locked into” this quaternary structure due to the formation of loop-spanning […] disulfide bridges. The construct of IL-17RA used in the assay excludes the […] portion of the receptor and is fused to a C-terminal 10×His tag (SEQ ID NO:2). An antibody directed against the His tag of the IL-17RA chimera is labeled with the HTRF acceptor chromophore (“D2”). The fluorescence-resonance energy transfer (FRET) depends on the vicinity of the donor chromophore to the acceptor, and interruption of the binding between the IL-17A and IL-17RA causes the reduction/loss of FRET. Therefore, this assay allows to evaluate the compound effect on the binding IL-17A and IL-17RA by monitoring the fluorescence intensity of donor vs acceptor. The assay is run as described below.
40 nL of 2-fold serial diluted compound solution for total 22 dilution points is added into each well of a 1536-well, white, low-volume, non-binding plate (Greiner #782904), then 2 μL of FLAG tagged IL-17A at 2× final concentration (2.5 nM) in solution of PBS+0.01% Triton-X100 is added to each well. The assay plate is briefly centrifuged then incubated for 1 h at rt. A mixed solution is prepared containing 2×5 nM 10HIS×IL-17RA, 2×2.5 nM Eu-anti-FLAG (CISBIO), 2×5 nM D2-anti-HIS (CISBIO) in PBS+0.01% Triton-X100+200 mM Potassium Fluoride (Sigma 60238) and 2 μL of mix is added to each well of the assay plate. The plate is briefly centrifuged then incubated for 2 h at rt. The HTRF intensities at the wavelength of donor (620 nm) and acceptor (665 nm) are measured using BMG Pherastar. The ratio between intensities at two wavelengths is calculated and plotted against the compound concentration and the data is fitted to a one-site competition model to yield IC50 of the compound.

[2] = test system: IL-17A-induced G-CSF production in human normal keratinocytes (NHK); experiment: NHK Assay: IL-17A-induced G-CSF production in human normal keratinocytes; type: cell-based; conditions: IL-17A 5 ng/mL, 24 h, 5% FBS, simple average if tested more than once
Protocol: IL-17A acts directly on keratinocytes through binding to dimeric receptor IL-17RA/RC and drives the production of a number of inflammatory mediators known to be elevated in psoriasis lesional tissue. IL-17A small molecule inhibitors that block the IL-17A to interact with IL-17R would inhibit the IL-17A signaling in its targeted cells such as keratinocytes. The compound functional activity is evaluated for its impact on IL-17A-induced G-CSF production in human normal keratinocytes (NHK).
Adult normal human keratinocytes are cultured in keratinocyte growth medium (Lonza) in a flask till reaching ˜ 90% confluence, then cells are transferred to a 384-well plate at density of 3000-4000 cell/well. Recombinant human IL-17A (Gibco PHC9174) is pre-incubated with titrated compound or DMSO for 1 h at rt then added to the cell culture plate. The final concentration of IL-17A is 5 ng/mL and DMSO is 0.2%, in the culture containing 5% FBS. Cells are cultured/treated for 24 h at 37° C. Supernatants are collected and G-CSF production is measured through HTRF technology using Human G-CSF Kit (CisBio). G-CSF concentration was extrapolated from the standard curve and IC50 is determined using GraphPad Prism. Cell viability is also evaluated using CellTiter-Glo kit (Promega) and effect of compound on cell viability is compared to DMSO control.

Sequence of UniProt Q16552 (Q16552 with tags, fused parts or gaps K93Q): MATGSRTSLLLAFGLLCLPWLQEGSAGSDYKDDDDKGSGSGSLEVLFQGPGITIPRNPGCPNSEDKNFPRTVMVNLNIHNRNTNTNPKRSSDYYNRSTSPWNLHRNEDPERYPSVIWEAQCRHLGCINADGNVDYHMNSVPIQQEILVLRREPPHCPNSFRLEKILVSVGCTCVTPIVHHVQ

| Structure (SMILES) | IC50 [1] [nM] | IC50 [2] [nM] | IC50 ([2]; Homo sapiens, Keratinocyte) [nM] |
| --- | --- | --- | --- |
| O=C(CC1CC1(F)F)N[C@@H](c1ccn2cc([C@@H](NC(=O)c3ncnn3CC3CC3)C3CCC(F)(F)CC3)nc2n1)C1CC1 (single isomer, unassigned) [Example 56, N—((S)-(7-((R)-Cyclopropyl(2-((R*)-2,2-difluorocyclopropyl)acetamido)methyl)imidazo[1,2-a]pyrimidin-2-yl)(4,4-difluorocyclohexyl)methyl)-1-(cyclopropylmethyl)-1H-1,2,4-triazole-5-carboxamide] | 730 | 1800 | – |
| O=C(CC1CC1(F)F)N[C@@H](c1ccn2cc([C@@H](NC(=O)c3conc3C(F)(F)F)C3CCC(F)(F)CC3)nc2n1)C1CC1 (single isomer, unassigned) [Example 57, N—((S)-(7-((R)-Cyclopropyl(2-((S*)-2,2-difluorocyclopropyl)acetamido)methyl)imidazo[1,2-a]pyrimidin-2-yl)(4,4-difluorocyclohexyl)methyl)-3-(trifluoromethyl)isoxazole-4-carboxamide] | 220 | 930 | – |
| O=C(CC1CC1(F)F)N[C@@H](c1ccn2cc([C@@H](NC(=O)c3conc3C(F)(F)F)C3CCC(F)(F)CC3)nc2n1)C1CC1 (single isomer, unassigned) [Example 58, N—((S)-(7-((R)-Cyclopropyl(2-((R*)-2,2-difluorocyclopropyl)acetamido)methyl)imidazo[1,2-a]pyrimidin-2-yl)(4,4-difluorocyclohexyl)methyl)-3-(trifluoromethyl)isoxazole-4-carboxamide] | 340 | 2200 | – |
| O=C(CCC(F)(F)F)NC(c1ccn2cc([C@@H](NC(=O)c3cnn(CCC(F)(F)F)c3)C3CCC(F)(F)CC3)nc2n1)C1CC1 (stereo in doubt) [Example 50, N—((S)-(7-((R*)-Cyclopropyl(4,4,4-trifluorobutanamido)methyl)imidazo[1,2-a]pyrimidin-2-yl)(4,4-difluorocyclohexyl)methyl)-1-(3,3,3-trifluoropropyl)-1H-pyrazole-4-carboxamide] | 6800 | – | > 20000 |
| CC(C)n1ncnc1C(=O)N[C@H](c1cn2ccc([C@@H](NC(=O)CC3CC(F)(F)C3)C3CC3)nc2n1)C1CCC(F)(F)CC1 [Example 14, N—((S)-(7-((S)-Cyclopropyl(2-(3,3-difluorocyclobutyl)acetamido)methyl)imidazo[1,2-a]pyrimidin-2-yl)(4,4-difluorocyclohexyl)methyl)-1-isopropyl-1H-1,2,4-triazole-5-carboxamide] | 17000 | – | > 20000 |
| O=C(CC1CC(F)(F)C1)N[C@H](c1ccn2cc([C@@H](NC(=O)c3ncnn3CC3CC3)C3CCC(F)(F)CC3)nc2n1)C1CC1 [Example 16, N—((S)-(7-((S)-Cyclopropyl(2-(3,3-difluorocyclobutyl)acetamido)methyl)imidazo[1,2-a]pyrimidin-2-yl)(4,4-difluorocyclohexyl)methyl)-1-(cyclopropylmethyl)-1H-1,2,4-triazole-5-carboxamide] | 12000 | – | > 20000 |
| Cc1nonc1C(=O)N[C@H](c1cn2ccc([C@@H](NC(=O)CC3CC(F)(F)C3)C3CC3)nc2n1)C1CCC(F)(F)CC1 [Example 22, N—((S)-(7-((S)-Cyclopropyl(2-(3,3-difluorocyclobutyl)acetamido)methyl)imidazo[1,2-a]pyrimidin-2-yl)(4,4-difluorocyclohexyl)methyl)-4-methyl-1,2,5-oxadiazole-3-carboxamide] | 6200 | – | > 20000 |
| Cc1nonc1C(=O)N[C@H](c1cn2ccc([C@H](NC(=O)CCC(F)(F)F)C3CC3)nc2n1)C1CCC(F)(F)CC1 [Example 23, N—((S)-(7-((R)-Cyclopropyl(4,4,4-trifluorobutanamido)methyl)imidazo[1,2-a]pyrimidin-2-yl)(4,4-difluorocyclohexyl)methyl)-4-methyl-1,2,5-oxadiazole-3-carboxamide] | 130 | – | 520 |
| O=C(CC1CC(F)(F)C1)N[C@@H](c1ccn2cc([C@@H](NC(=O)c3conc3C3CC3)C3CCC(F)(F)CC3)nc2n1)C1CC1 [Example 24, 3-Cyclopropyl-N—((S)-(7-((R)-cyclopropyl(2-(3,3-difluorocyclobutyl)acetamido)methyl)imidazo[1,2-a]pyrimidin-2-yl)(4,4-difluorocyclohexyl)methyl)isoxazole-4-carboxamide] | 180 | – | 180 |
| O=C(CC1CC(F)(F)C1)N[C@@H](c1ccn2cc([C@@H](NC(=O)c3ccnc(CC(F)(F)F)c3)C3CCC(F)(F)CC3)nc2n1)C1CC1 [Example 25, N—((S)-(7-((R)-Cyclopropyl(2-(3,3-difluorocyclobutyl)acetamido)methyl)imidazo[1,2-a]pyrimidin-2-yl)(4,4-difluorocyclohexyl)methyl)-2-(2,2,2-trifluoroethyl)isonicotinamide] | 310 | – | 210 |

The next lines start with results.

| IC50 [1] [nM] | Structure (SMILES) | IC50 [2] [nM] | IC50 ([2]; Homo sapiens, Keratinocyte) [nM] |
| --- | --- | --- | --- |
| 460 | Cc1conc1C(=O)N[C@H](c1cn2ccc([C@H](NC(=O)CC3CC3(F)F)C3CC3)nc2n1)C1CCC(F)(F)CC1 (single isomer, unassigned) [Example 54, N—((S)-(7-((R)-Cyclopropyl(2-((R*)-2,2-difluorocyclopropyl)acetamido)methyl)imidazo[1,2-a]pyrimidin-2-yl)(4,4-difluorocyclohexyl)methyl)-4-methylisoxazole-3-carboxamide] | 4500 | – |
| 570 | O=C(CC1CC1(F)F)N[C@@H](c1ccn2cc([C@@H](NC(=O)c3ncnn3CC3CC3)C3CCC(F)(F)CC3)nc2n1)C1CC1 (single isomer, unassigned) [Example 55, N—((S)-(7-((R)-Cyclopropyl(2-((S*)-2,2-difluorocyclopropyl)acetamido)methyl)imidazo[1,2-a]pyrimidin-2-yl)(4,4-difluorocyclohexyl)methyl)-1-(cyclopropylmethyl)-1H-1,2,4-triazole-5-carboxamide] | – | 1100 |
| 340 | CC(C)n1ncnc1C(=O)N[C@H](c1cn2ccc([C@H](NC(=O)CC3CC(F)(F)C3)C3CC3)nc2n1)C1CCC(F)(F)CC1 [Example 13, N—((S)-(7-((R)-Cyclopropyl(2-(3,3-difluorocyclobutyl)acetamido)methyl)imidazo[1,2-a]pyrimidin-2-yl)(4,4-difluorocyclohexyl)methyl)-1-isopropyl-1H-1,2,4-triazole-5-carboxamide] | – | 500 |
| 290 | O=C(CC1CC(F)(F)C1)N[C@@H](c1ccn2cc([C@@H](NC(=O)c3ncnn3CC3CC3)C3CCC(F)(F)CC3)nc2n1)C1CC1 [Example 15, N—((S)-(7-((R)-Cyclopropyl(2-(3,3-difluorocyclobutyl)acetamido)methyl)imidazo[1,2-a]pyrimidin-2-yl)(4,4-difluorocyclohexyl)methyl)-1-(cyclopropylmethyl)-1H-1,2,4-triazole-5-carboxamide] | – | 1400 |
| 99 | Cc1nonc1C(=O)N[C@H](c1cn2ccc([C@H](NC(=O)CC3CC(F)(F)C3)C3CC3)nc2n1)C1CCC(F)(F)CC1 [Example 21, N—((S)-(7-((R)-Cyclopropyl(2-(3,3-difluorocyclobutyl)acetamido)methyl)imidazo[1,2-a]pyrimidin-2-yl)(4,4-difluorocyclohexyl)methyl)-4-methyl-1,2,5-oxadiazole-3-carboxamide] | – | 590 |
